Tests used:
HCT 116 cells = assay: HCT 116 cell proliferation assay, CTG; type: cell-based; conditions: Homo sapiens; HCT 116, CTG, 96 h; median; read-out: 2D-PROLI HCT 116 CTG 96 h, IC50 - [mol/l] (median)
Protocol: 400 HCT 116 cells/30 μL/well were plated in growth medium (DMEM/Ham's F12, 10% FCS) in a 384-well plate (CORNING #3571) at day 1. Reference plate was seeded for time zero determination. All plates were incubated overnight 37° C. Day 2: test compound was added in 7-step dilution and incubate at 37° C. for 96 h. Day 2: time zero plate: 30 μL/well CTG solution (Promega Cell Titer Glo solution; catalog #G755B and G756B) were added, incubated for 30 minutes, read luminescence on PheraStar. Day 6: compound treated plates: 30 μL/well CTG solution (Promega Cell Titer Glo solution; catalog #G755B and G756B) were added, incubated for 30 minutes, luminescence was read on PheraStar. Proliferation was calculated after subtracting time zero luminescence values from day 6 values and comparing to untreated wells. The IC50 values were determined using the four parameter fit.

human CSNK1D = human CSNK1D (Homo sapiens (Human), UniProt P48730); assay: CSNK1D assay (ADP-Glo, 1 μM ATP); type: biochemical; conditions: median, read-out: CSNK1D IC50 [mol/l] (median)
Protocol: CSNK1D-inhibitory activity of compounds of the present invention in presence of 1 μM adenosine-tri-phosphate (ATP) was quantified employing the CSNK1D assay as described in the following paragraphs. In essence, the enzyme activity is measured by quantification of the adenosine-di-phosphate (ADP), which is generated as a co-product of the enzyme reaction, via the “ADP-Glo™ Kinase Assay” kit from the company Promega. This detection system works as follows: In a first step the ATP not consumed in the kinase reaction is quantitatively converted to CAMP employing an adenylate cyclase (“ADP-Glo-reagent”), then the adenylate cyclase is stopped and the ADP generated in the kinase reaction converted to ATP which generates in a luciferase-based reaction a glow-luminescence signal (“Kinase Detection Reagent”).
Recombinant fusion protein of N-terminal Glutathion-S-Transferase (GST) and full-length human CSNK1D, expressed by baculovirus infected insect cells and purified via Glutathion affinity chromatography, was purchased from Life Technologies (product no. PV3665) and used as enzyme. As substrate for the kinase reaction the biotinylated peptide Btn-Ahx-SGSEGDSESGEEEG (C-terminus in amide form) was used which can be purchased e.g. from the company Biosyntan (Berlin-Buch, Germany).
For the assay 50 nl of a 100-fold concentrated solution of the test compound in DMSO was pipetted into a white 1536-well microtiter plate (Greiner Bio-One, Frickenhausen, Germany), 2 μL of a solution of CSNK1D in aqueous assay buffer [50 mM HEPES pH 7.5, 10% (v/v) glycerol, 10 mM MgCl2, 50 mM NaCl, 1 mM dithiothreitol, 0.01% (w/v) bovine serum albumin, 0.01% (v/v) Triton X-100] were added and the mixture was incubated for 15 min at 22° C. to allow pre-binding of the test compounds to the enzyme before the start of the kinase reaction. Then the kinase reaction was started by the addition of 3 μL of a solution of ATP (1.67 μM=>final conc. in the 5 μL assay volume is 1 μM) and peptide substrate (50 μM=>final conc. in the 5 μL assay volume is 30 μM) in assay buffer and the resulting mixture was incubated for a reaction time of 30 min at 22° C. The concentration of CSNK1D was adjusted depending of the activity of the enzyme lot and was chosen appropriate to have the assay in the linear range, a typical concentration is about 0.5 ng/μL. The reaction was stopped by the addition of 2.5 μL of “ADP-Glo-reagent” (1:1.5 fold diluted with water) and the resulting mixture was incubated at 22° C. for 1 h to convert the ATP not consumed in the kinase reaction completely to CAMP. Subsequently 2.5 μL of the “kinase detection reagent” (1.2 fold more concentrated than recommended by the producer) were added, the resulting mixture was incubated at 22° C. for 1 h and then the luminescence measured with a suitable measurement instrument (e.g. Viewlux™ from Perkin-Elmer). The amount of emitted light was taken as a measure for the amount of ADP generated and thereby for the activity of the CSNK1D.
The data were normalised (enzyme reaction without inhibitor=0% inhibition, all other assay components but no enzyme=100% inhibition).

LoVo cells = assay: LoVo cell proliferation assay, CTG method; type: cell-based; conditions: Homo sapiens, 96 h, median, read-out: 2D-PROLI LoVo CTG 96 h, IC50 - [mol/l] (median)
Protocol: CELL PROLIFERATION ASSAY CTG METHOD, 384-well version: Day 1: plate 400 cells/30 μL/well in growth medium (RPMI 1640 (Gibco #61870-10; with Glutamax)+10% FBS) in 384-well black plates (Corning #3571). Plated sister wells in a separate plate for time zero determination. Incubated all plates overnight at 37° C. Day 2: added test compounds in serial dilutions using the HP D300 Digital Dispenser and incubate at 37° C. for 96 h. Measured time zero plate: add 30 μL/well CTG solution (Promega CellTiter-Glo solution (catalog #G7573)) to wells in time zero plate; incubated for 2 minutes in a orbital shaker to induce cell lysis; allowed the plate to incubate at room temperature for additional 10 min to stabilize luminescent signal and read luminescence on PheraStar (rapid mode-0.02 sec/well; GAIN 3000). Day 6: Added 30 μL/well CTG solution to all test wells, incubated for 2 minutes in a orbital shaker to induce cell lysis; allowed the plate to incubate at room temperature for additional 10 min to stabilize luminescent signal and read luminescence on PheraStar (rapid mode-0.02 sec/well; GAIN 3000). Proliferation IC50s were calculated using the DRC application in ShiNy Analysis Platform-SNAP.”

human CSNK1D, sequence (P48730 whole entry): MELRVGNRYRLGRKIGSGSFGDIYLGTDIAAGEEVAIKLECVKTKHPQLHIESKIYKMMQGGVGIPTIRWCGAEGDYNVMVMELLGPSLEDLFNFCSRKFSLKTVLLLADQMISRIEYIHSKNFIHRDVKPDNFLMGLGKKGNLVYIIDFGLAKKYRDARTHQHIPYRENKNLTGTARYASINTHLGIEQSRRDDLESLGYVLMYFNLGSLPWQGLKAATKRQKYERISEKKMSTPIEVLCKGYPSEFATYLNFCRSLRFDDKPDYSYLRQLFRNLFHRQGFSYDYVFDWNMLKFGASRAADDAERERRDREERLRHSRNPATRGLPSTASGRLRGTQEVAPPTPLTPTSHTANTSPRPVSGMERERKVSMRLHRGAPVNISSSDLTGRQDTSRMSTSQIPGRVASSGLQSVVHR

SMILES | IC50 (HCT 116 cells) | IC50 (human CSNK1D) | IC50 (LoVo cells)
O=C(Cc1cnc2ccccn12)Nc1cc(-c2[nH]c3cccnc3c2-c2ccccn2)ccn1 [Example 1, 2-imidazo[1,2-a]pyridin-3-yl-N-[4-[3-(2-pyridyl)-^1H-pyrrolo[3,2-b]pyridin-2-yl]-2-pyridyl]acetamide] | 3.87 µM | 0.0114 µM | 12.4 µM
Cn1cc(CC(=O)Nc2cc(-c3[nH]c4cccnc4c3-c3ccccn3)ccn2)cn1 [Example 2, 2-(1-methylpyrazol-4-yl)-N-[4-[3-(2-pyridyl)-^1H-pyrrolo[3,2-b]pyridin-2-yl]-2-pyridyl]acetamide] | 3.6 µM | 0.0111 µM | 8.41 µM
Cc1nc(CC(=O)Nc2cc(-c3[nH]c4cccnc4c3-c3ccccn3)ccn2)cs1 [Example 3, 2-(2-methylthiazol-4-yl)-N-[4-[3-(2-pyridyl)-^1H-pyrrolo[3,2-b]pyridin-2-yl]-2-pyridyl]acetamide] | 0.359 µM | 0.00501 µM | 0.363 µM
O=C(Cc1cnco1)Nc1cc(-c2[nH]c3cccnc3c2-c2ccccn2)ccn1 [Example 4] | 0.535 µM | – | 3.13 µM
Cn1cnc(CC(=O)Nc2cc(-c3[nH]c4cccnc4c3-c3ccccn3)ccn2)c1 [Example 5, 2-(1-methylimidazol-4-yl)-N-[4-[3-(2-pyridyl)-^1H-pyrrolo[3,2-b]pyridin-2-yl]-2-pyridyl]acetamide] | 2.79 µM | 0.0131 µM | 7.43 µM
O=C(Cc1cnc2ccccc2n1)Nc1cc(-c2[nH]c3cccnc3c2-c2ccccn2)ccn1 [Example 6, N-[4-[3-(2-pyridyl)-^1H-pyrrolo[3,2-b]pyridin-2-yl]-2-pyridyl]-2-quinoxalin-2-yl-acetamide] | 0.0911 µM | 0.00344 µM | 0.177 µM
Cc1nn(C)cc1CC(=O)Nc1cc(-c2[nH]c3cccnc3c2-c2ccccn2)ccn1 [Example 9, 2-(1,3-dimethylpyrazol-4-yl)-N-[4-[3-(2-pyridyl)-^1H-pyrrolo[3,2-b]pyridin-2-yl]-2-pyridyl]acetamide] | 0.817 µM | 0.00566 µM | 4.07 µM
O=C(Cc1ccon1)Nc1cc(-c2[nH]c3cccnc3c2-c2ccccn2)ccn1 [Example 10, 2-isoxazol-3-yl-N-[4-[3-(2-pyridyl)-^1H-pyrrolo[3,2-b]pyridin-2-yl]-2-pyridyl]acetamide] | 0.848 µM | 0.0056 µM | 3.24 µM
Cc1ocnc1CC(=O)Nc1cc(-c2[nH]c3cccnc3c2-c2ccccn2)ccn1 [Example 11, 2-(5-methyloxazol-4-yl)-N-[4-[3-(2-pyridyl)-^1H-pyrrolo[3,2-b]pyridin-2-yl]-2-pyridyl]acetamide] | 0.964 µM | 0.00809 µM | 3.32 µM
Cc1noc(C)c1CC(=O)Nc1cc(-c2[nH]c3cccnc3c2-c2ccccn2)ccn1 [Example 12, 2-(3,5-dimethylisoxazol-4-yl)-N-[4-[3-(2-pyridyl)-^1H-pyrrolo[3,2-b]pyridin-2-yl]-2-pyridyl]acetamide] | 1.08 µM | 0.00502 µM | 6.81 µM
Cc1cc(CC(=O)Nc2cc(-c3[nH]c4cccnc4c3-c3ccccn3)ccn2)on1 [Example 13, 2-(3-methylisoxazol-5-yl)-N-[4-[3-(2-pyridyl)-^1H-pyrrolo[3,2-b]pyridin-2-yl]-2-pyridyl]acetamide] | 0.626 µM | 0.00568 µM | 3.14 µM
Cc1cc(CC(=O)Nc2cc(-c3[nH]c4cccnc4c3-c3ccccn3)ccn2)n(C)n1 [Example 14] | 0.544 µM | 0.00488 µM | 3.75 µM
O=C(Cc1cc2ccccn2n1)Nc1cc(-c2[nH]c3cccnc3c2-c2ccccn2)ccn1 [Example 15, 2-pyrazolo[1,5-a]pyridin-2-yl-N-[4-[3-(2-pyridyl)-^1H-pyrrolo[3,2-b]pyridin-2-yl]-2-pyridyl]acetamide] | 0.171 µM | 0.00375 µM | 0.192 µM
